We go through 19 compounds from patent US11753404B2, “Aminothiazole compounds as c-Kit inhibitors” (Ariad Pharmaceuticals, Inc., priority 2016, dated 2023).

The GI50 is the concentration that inhibits growth by half. Read a low GI50 as greater sensitivity of the cells.

Holding throughout (assay): c-Kit assay: Ba/F3 KIT mutant cell viability (Cell Titer-Glo, 72 hours)
Common to all, as to assay type: cell-based
Conditions in all cases: viability after 72 hours

The target of assay [1] is T1, BAF3 FL KIT EX11DEL/T670I (Homo sapiens, UniProt P10721, T670I, cells depend on it, form not given).
T1 construct: BAF3 FL KIT EX11DEL/T670I
T1 sequence (P10721 with tags, fused parts or gaps DEL557-558/T670I, form open): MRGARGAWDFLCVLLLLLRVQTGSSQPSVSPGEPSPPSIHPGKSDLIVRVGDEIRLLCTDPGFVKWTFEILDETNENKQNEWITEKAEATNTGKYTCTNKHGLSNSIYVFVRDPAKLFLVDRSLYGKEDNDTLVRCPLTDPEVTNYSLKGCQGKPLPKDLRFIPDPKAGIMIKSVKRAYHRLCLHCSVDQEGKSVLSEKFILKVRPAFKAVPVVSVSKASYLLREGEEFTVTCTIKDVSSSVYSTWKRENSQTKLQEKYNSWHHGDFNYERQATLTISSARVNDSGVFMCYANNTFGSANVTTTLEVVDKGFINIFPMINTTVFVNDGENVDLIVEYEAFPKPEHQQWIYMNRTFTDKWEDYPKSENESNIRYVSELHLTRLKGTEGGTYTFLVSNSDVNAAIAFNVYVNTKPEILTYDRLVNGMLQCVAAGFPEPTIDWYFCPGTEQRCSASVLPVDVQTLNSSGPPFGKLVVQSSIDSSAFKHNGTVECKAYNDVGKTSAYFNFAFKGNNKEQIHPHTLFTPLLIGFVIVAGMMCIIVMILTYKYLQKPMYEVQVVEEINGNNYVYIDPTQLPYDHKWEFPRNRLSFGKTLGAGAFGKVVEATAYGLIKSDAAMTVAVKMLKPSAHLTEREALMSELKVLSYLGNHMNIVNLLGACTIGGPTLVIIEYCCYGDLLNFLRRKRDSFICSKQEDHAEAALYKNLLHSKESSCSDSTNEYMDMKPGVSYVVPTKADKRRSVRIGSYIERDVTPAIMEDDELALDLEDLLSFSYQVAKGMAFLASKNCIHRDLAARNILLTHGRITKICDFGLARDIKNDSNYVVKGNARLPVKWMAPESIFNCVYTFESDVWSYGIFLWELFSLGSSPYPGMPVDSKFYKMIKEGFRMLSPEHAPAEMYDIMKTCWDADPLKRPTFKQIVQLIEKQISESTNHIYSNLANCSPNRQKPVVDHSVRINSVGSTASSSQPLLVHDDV
The procedure:
(§1) Generation of DBa/F3 KIT Mutant Engineered Cell Lines
(§2) KIT cDNAs were synthesized by GenScript and cloned into the pLVX-IRES-Puro vector (Clontech). Viral particles were produced by transfecting pLVX-IRES-puro vectors containing KIT mutant genes into HEK293 cells (Invitrogen) using the Trans-Lentiviral ORF Packaging Kit (Thermo Scientific). 48 hours post-transfection, virus-containing supernatants were harvested and incubated for another 48-72 hours with parental Ba/F3 cells (DSMZ) in the presence of 10 ng/mL IL-3 (R&D Systems). Transduced Ba/F3 cells were then selected by IL-3 withdrawal and puromycin (0.5-1 μg/mL, Invitrogen).
(§3) Cell lines (e.g., EX11DEL, EX11DEL/D816H, EX11DEL/T670I, and EX11DEL/V654A) were plated into 384 well plates using RPMI 1640 supplemented with 10% FBS at densities that produced linear growth and incubated at 37° C. in 5% (v/v) CO2. Cells were treated with eight concentrations of compound over a 4-fold dilution (10 μM to 0.61 nM) and viability was assessed using Cell Titer-Glo assay (Promega) after 72 hours. Data were plotted as percent viability relative to vehicle-treated cells. Dose-responses curves were generated and used to calculate IC50 values.

The target of assay [2] is T2, BAF3 FL KIT EX11DEL/V654A (Homo sapiens, UniProt P10721, V654A, cells depend on it, form not given).
T2 construct: BAF3 FL KIT EX11DEL/V654A
T2 sequence (P10721 with tags, fused parts or gaps DEL557-558/V654A, form open): as the sequence (P10721 with tags, fused parts or gaps DEL557-558/T670I, form open) above, with V652A, I668T counted along it
The procedure:
as §1, §2, §3

The next assay concerns the target T3, BAF3 FL KIT EX11DEL (Homo sapiens, UniProt P10721, cells depend on it, form not given).
T3 construct: BAF3 FL KIT EX11DEL
The procedure:
as §1, §2, §3

Assay [3] addresses T4, BAF3 FL KIT EX11DEL/D816H (Homo sapiens, UniProt P10721, D816H, cells depend on it, form not given).
T4 construct: BAF3 FL KIT EX11DEL/D816H
The procedure:
as §1, §2, §3

T3 sequence (P10721 with tags, fused parts or gaps DEL557-558): as the sequence (P10721 with tags, fused parts or gaps DEL557-558/T670I, form open) above, with I668T counted along it
T4 sequence (P10721 with tags, fused parts or gaps DEL557-558/D816H, form open): as the sequence (P10721 with tags, fused parts or gaps DEL557-558/T670I, form open) above, with I668T, D814H counted along it

`Cc1ccc(C(=O)Nc2cc(C(F)(F)F)ccn2)cc1C#Cc1cnc(NC(=O)N(C)CCN2CCCC2)s1` [I-19, 4-methyl-3-((2-(3-methyl-3-(2-(pyrrolidin-1-yl)ethyl)ureido)thiazol-5-yl)ethynyl)-N-(4-(trifluoromethyl)pyridin-2-yl)benzamide]: the GI50 in assay [1] was 10 to 50 nM; in assay [2], 10 to 50 nM; on BAF3 FL KIT EX11DEL, less than 10 nM; in assay [3] it was 10 to 50 nM.

With `Cc1ccc(C(=O)Nc2cc(C(F)(F)F)ccn2)cc1C#Cc1cnc(NC(=O)N(C)CC2CCCN2C)s1` (stereo not shown) [I-20, 4-methyl-3-((2-(3-methyl-3-((1-methylpyrrolidin-2-yl)methyl)ureido)thiazol-5-yl)ethynyl)-N-(4-(trifluoromethyl)pyridin-2-yl)benzamide], the GI50 in assay [1] was 10 to 50 nM; in assay [2], 10 to 50 nM; at BAF3 FL KIT EX11DEL, less than 10 nM; in assay [3], 10 to 50 nM.

With `Cc1ccc(C(=O)Nc2cc(C(F)(F)F)ccn2)cc1C#Cc1cnc(NC(=O)N(C)CC(C)(C)O)s1` [I-21, 3-((2-(3-(2-hydroxy-2-methylpropyl)-3-methylureido)thiazol-5-yl)ethynyl)-4-methyl-N-(4-(trifluoromethyl)pyridin-2-yl)benzamide], the GI50 in assay [1] is 10 to 50 nM; in assay [2] it was 10 to 50 nM; on BAF3 FL KIT EX11DEL, less than 10 nM; in assay [3], 10 to 50 nM.

Regarding `Cc1ccc(C(=O)Nc2cc(C(F)(F)F)ccn2)cc1C#Cc1cnc(NC(=O)N(C)C2CCC(O)CC2)s1` (stereo not shown) [I-22, 3-((2-(3-(4-hydroxycyclohexyl)-3-methylureido)thiazol-5-yl)ethynyl)-4-methyl-N-(4-(trifluoromethyl)pyridin-2-yl)benzamide], the GI50 (in assay [1]; in assay [2]; on BAF3 FL KIT EX11DEL; in assay [3]) was less than 10 nM each time.

As to `Cc1ccc(C(=O)Nc2cc(C(F)(F)F)ccn2)cc1C#Cc1cnc(NC(=O)N2CCN(C)CC2)s1` [I-23, 4-methyl-N-(5-((2-methyl-5-((4-(trifluoromethyl)pyridin-2-yl)carbamoyl)phenyl)ethynyl)thiazol-2-yl)piperazine-1-carboxamide], the GI50 is less than 10 nM in assay [1], 10 to 50 nM in assay [2], less than 10 nM on BAF3 FL KIT EX11DEL and 10 to 50 nM in assay [3].

For the compound `Cc1ccc(C(=O)Nc2cc(C(F)(F)F)ccn2)cc1C#Cc1cnc(NC(=O)N2CC(C)(O)C2)s1` [I-24, 3-hydroxy-3-methyl-N-(5-((2-methyl-5-((4-(trifluoromethyl)pyridin-2-yl)carbamoyl)phenyl)ethynyl)thiazol-2-yl)azetidine-1-carboxamide], the GI50 (in assay [1]; in assay [2]; on BAF3 FL KIT EX11DEL; in assay [3]) was less than 10 nM throughout.

In the case of `Cc1ccc(C(=O)Nc2cc(C(F)(F)F)ccn2)cc1C#Cc1cnc(NC(=O)N2CCC(C)CC2)s1` [I-25, 4-methyl-N-(5-((2-methyl-5-((4-(trifluoromethyl)pyridin-2-yl)carbamoyl)phenyl)ethynyl)thiazol-2-yl)piperidine-1-carboxamide], the GI50 (in assay [1]; in assay [2]; on BAF3 FL KIT EX11DEL; in assay [3]) was 10 to 50 nM in each case.

As for `Cc1ccc(C(=O)Nc2cc(C(F)(F)F)ccn2)cc1C#Cc1cnc(NC(=O)NCc2ccncc2)s1` [I-26, 4-methyl-3-((2-(3-(pyridin-4-ylmethyl)ureido)thiazol-5-yl)ethynyl)-N-(4-(trifluoromethyl)pyridin-2-yl)benzamide], the GI50 (in assay [1]; in assay [2]; on BAF3 FL KIT EX11DEL; in assay [3]) was 10 to 50 nM throughout.

On to `Cc1ccc(C(=O)Nc2cc(C(F)(F)F)ccn2)cc1C#Cc1cnc(NC(=O)N2CCN(CCO)CC2)s1` [I-27, 4-(2-hydroxyethyl)-N-(5-((2-methyl-5-((4-(trifluoromethyl)pyridin-2-yl)carbamoyl)phenyl)ethynyl)thiazol-2-yl)piperazine-1-carboxamide], for which the GI50 in assay [1] is less than 10 nM; in assay [2], 10 to 50 nM; on BAF3 FL KIT EX11DEL it was less than 10 nM; in assay [3], 10 to 50 nM.

As for `CNCCN(C)C(=O)Nc1ncc(C#Cc2cc(C(=O)Nc3cc(C(F)(F)F)ccn3)ccc2C)s1` [I-28, 4-methyl-3-((2-(3-methyl-3-(2-(methylamino)ethyl)ureido)thiazol-5-yl)ethynyl)-N-(4-(trifluoromethyl)pyridin-2-yl)benzamide], the GI50 in assay [1] was 10 to 50 nM; in assay [2], 10 to 50 nM; at BAF3 FL KIT EX11DEL, less than 10 nM; in assay [3] it was 10 to 50 nM.

Consider `Cc1ccc(C(=O)Nc2cc(C(F)(F)F)ccn2)cc1C#Cc1cnc(NC(=O)N(C)C2CCN(C)CC2)s1` [I-29, 4-methyl-3-((2-(3-methyl-3-(1-methylpiperidin-4-yl)ureido)thiazol-5-yl)ethynyl)-N-(4-(trifluoromethyl)pyridin-2-yl)benzamide], for which the GI50 is less than 10 nM in assay [1], 10 to 50 nM in assay [2], less than 10 nM at BAF3 FL KIT EX11DEL and less than 10 nM in assay [3].

Take `Cc1ccc(C(=O)Nc2cc(C(F)(F)F)ccn2)cc1C#Cc1cnc(NC(=O)N2CCNCC2)s1` [I-30, N-(5-((2-methyl-5-((4-(trifluoromethyl)pyridin-2-yl)carbamoyl)phenyl)ethynyl)thiazol-2-yl)piperazine-1-carboxamide]: the GI50 in assay [1] was 10 to 50 nM; in assay [2] it was 10 to 50 nM; at BAF3 FL KIT EX11DEL it was less than 10 nM; in assay [3] it was 10 to 50 nM.

For the compound `Cc1ccc(C(=O)Nc2cc(C(F)(F)F)ccn2)cc1C#Cc1cnc(NC(=O)NCCCCN)s1` [I-31, 3-((2-(3-(4-aminobutyl)ureido)thiazol-5-yl)ethynyl)-4-methyl-N-(4-(trifluoromethyl)pyridin-2-yl)benzamide], the GI50 in assay [1] lay within 10 to 50 nM; in assay [2] it was 50 to 100 nM; at BAF3 FL KIT EX11DEL, 10 to 50 nM; in assay [3] it was 50 to 100 nM.

As to `Cc1ccc(C(=O)Nc2cc(C(F)(F)F)ccn2)cc1C#Cc1cnc(NC(=O)N(C)C2CCCN(C)C2)s1` (stereo not shown) [I-32, 4-methyl-3-((2-(3-methyl-3-(1-methylpiperidin-3-yl)ureido)thiazol-5-yl)ethynyl)-N-(4-(trifluoromethyl)pyridin-2-yl)benzamide], the GI50 in assay [1] is 10 to 50 nM; in assay [2], 10 to 50 nM; at BAF3 FL KIT EX11DEL it was less than 10 nM; in assay [3], 10 to 50 nM.

`Cc1ccc(C(=O)Nc2cc(C(F)(F)F)ccn2)cc1C#Cc1cnc(NC(=O)N(C)C2CCC(N)CC2)s1` (stereo not shown) [I-33, 3-((2-(3-(4-aminocyclohexyl)-3-methylureido)thiazol-5-yl)ethynyl)-4-methyl-N-(4-(trifluoromethyl)pyridin-2-yl)benzamide]: the GI50 in assay [1] was 10 to 50 nM; in assay [2], 50 to 100 nM; at BAF3 FL KIT EX11DEL, 10 to 50 nM; in assay [3], 50 to 100 nM.

In the case of `Cc1ccc(C(=O)Nc2cc(C(F)(F)F)ccn2)cc1C#Cc1cnc(NC(=O)N2CCOC(CN(C)C)C2)s1` (stereo not shown) [I-34, 2-((dimethylamino)methyl)-N-(5-((2-methyl-5-((4-(trifluoromethyl)pyridin-2-yl)carbamoyl)phenyl)ethynyl)thiazol-2-yl)morpholine-4-carboxamide], the GI50 in assay [1] was 10 to 50 nM; in assay [2], 10 to 50 nM; at BAF3 FL KIT EX11DEL it was less than 10 nM; in assay [3], 10 to 50 nM.

With `Cc1ccc(C(=O)Nc2cc(C(F)(F)F)ccn2)cc1C#Cc1cnc(NC(=O)N2CCOCC2)s1` [I-35, N-(5-((2-methyl-5-((4-(trifluoromethyl)pyridin-2-yl)carbamoyl)phenyl)ethynyl)thiazol-2-yl)morpholine-4-carboxamide], the GI50 was less than 10 nM in assay [1], 10 to 50 nM in assay [2], less than 10 nM on BAF3 FL KIT EX11DEL and less than 10 nM in assay [3].

`Cc1ccc(C(=O)Nc2cc(C(F)(F)F)ccn2)cc1C#Cc1cnc(NC(=O)NCCCN)s1` [I-36, 3-((2-(3-(3-aminopropyl)ureido)thiazol-5-yl)ethynyl)-4-methyl-N-(4-(trifluoromethyl)pyridin-2-yl)benzamide]: the GI50 in assay [1] was 10 to 50 nM; in assay [2], 10 to 50 nM; on BAF3 FL KIT EX11DEL, less than 10 nM; in assay [3] it was 10 to 50 nM.

For the compound `CC(=O)N1CCN(C(=O)Nc2ncc(C#Cc3cc(C(=O)Nc4cc(C(F)(F)F)ccn4)ccc3C)s2)CC1` [I-37, 4-acetyl-N-(5-((2-methyl-5-((4-(trifluoromethyl)pyridin-2-yl)carbamoyl)phenyl)ethynyl)thiazol-2-yl)piperazine-1-carboxamide], the GI50 (in assay [1]; in assay [2]; on BAF3 FL KIT EX11DEL; in assay [3]) was less than 10 nM each time.
